Values quoted from earlier work, collected in US20230372318A1, “METHODS FOR TREATING A SUBJECT HAVING MULTIPLE SYSTEM ATROPHY” (Theravance Biopharma R&D IP, LLC, priority 2022, published 2023).
Where two headings read alike, the source gives them in different places.

Experiments:
[1] = test system: nOH in MSA patients and non-MSA patients; details: cited from earlier work
[2] = test system: patients with central autonomic failure; details: cited from earlier work
[3] = test system: adult patients with symptomatic nOH; details: prescribing information, black box warning; cited from earlier work

Row | Structure (SMILES) | Effect against nOH ([1]; MSA patients) | Effect against nOH ([1]; non-MSA patients) | Effect on blood pressure [2] | Main side effect [3]
1 | CNCC[C@@H](Oc1ccccc1C)c1ccccc1 [Atomoxetine] | ineffective | showing improvement | increase blood pressure | –
2 | N[C@H](C(=O)O)[C@H](O)c1ccc(O)c(O)c1 [droxidopa, L-threo-3-4-dihydroxyphenylserine] | – | – | – | supine hypertension
